Drawing on patent US8957184B2, “Pro-apoptotic peptides” (priority 2009, dated 2015), this text covers cell penetrating activity, penetrating properties and internalization of peptide for 6 compounds.

Read-outs that look alike come from different tables or passages of the source. Ends that are not written are not given here.

Series [1] deals with bone marrow B cells from CLL patients. Description: Effect of DPT-C9h on bone marrow cells, CLL patients. The format is cell-based, human.
Series [2] has as its system primary B cells from CLL patients. Briefly: Effect of DPT-C9h on PBMC: B cells from CLL patients (annexin staining). The format is cell-based, human. The protocol:
PBMC (Peripheral Blood Mononuclear Cell) were isolated by Ficoll gradient centrifugation from healthy donors and CLL patients, cultured in complete RPMI medium and treated with 150 μM of DPT-C9h peptide. Upon 3 h of treatment, cells were washed and resuspended in complete RPMI medium. Apoptosis was estimated 6 h after washing using Annexin staining and specific markers for B cells (FIG. 4A), and for T, NK and monocytes (FIG. 4B). Apoptosis is represented as the percentage compared to cells treated with […].
PBMC were isolated by Ficoll gradient centrifugation from healthy donors and three different types of CLL patients: treated, non-treated and resistant. Cells were maintained in complete RPMI medium, treated with 150 μM of DPT-C9h peptide for 3 h and then washed and transferred to complete medium. Samples were analyzed at different times after washing. Apoptosis was estimated by annexin staining. The different populations were selected using specific markers. Apoptosis is represented as percentage compared to control non treated cells.
Mononuclear cells isolated from peripheral blood (PBMC) were prepared by Ficoll gradient centrifugation.
A total of 2.5×10^5 cells were washed with ice-cold PBS, diluted in ice-cold binding buffer and stained with annexin and propidium iodide (PI). Samples were maintained on ice for 10 min in the dark and then analyzed by flow cytometry.

Series [3] has as its system Exponentially proliferating cells. Description: Intracellular detection of biotinylated peptides (cell penetration). The class given is cell-based. The procedure: Exponentially proliferating cells were rinsed twice in PBS. A total of 6×10^4 cells per well were seeded in 24 well plates and incubated in RPMI-1640 at 37° C. After 24 h, biotinylated peptides were added and incubated with cells (4 h) for intracellular analysis. Cells were rinsed in PBS and fixed with 0.1% paraformaldehyde (PFA) for 10 min before adding […] of streptavidin-peroxidase. Then, cells were rinsed with PBS, incubated with di-amino-benzidyne (DAB) for 5 min, washed in PBS and analyzed by microscopy.

With “VKKKKIKREIKIYVETLDGIFEQWAHSEDL [DPT-C9h, VKKKKIKREIKI-YVETLDGIFEQWAHSEDL]”, in series [1], the cell penetrating activity result is given as “cell penetrating”. In addition, the penetrating properties entry in series [2] is given as “penetrating”.
For the compound `N=C(N)NCCC[C@H](NC(=O)[C@H](CCCNC(=N)N)NC(=O)[C@H](CCCNC(=N)N)NC(=O)[C@H](CCC(N)=O)NC(=O)[C@H](CCCNC(=N)N)NC(=O)[C@H](CCCNC(=N)N)NC(=O)[C@H](CCCCN)NC(=O)[C@H](CCCCN)NC(=O)[C@H](CCCNC(=N)N)NC(=O)CNC(=O)[C@@H](N)Cc1ccc(O)cc1)C(=O)O` [Tat, YGRKKRRQRRR], the internalization of peptide entry in series [3] (data not shown) was “internalized”.
For the compound “VKKKKIKREIKIYIETLDGILEQWARSEDL [DPT-C9, VKKKKIKREIKI-YIETLDGILEQWARSEDL]”, in series [3], the internalization of peptide result was “internalized”.
For the compound “VKKKKIKREIKILDESRAWQELIGDLTEIY [DPT-C9r, VKKKKIKREIKI-LDESRAWQELIGDLTEIY]”, the internalization of peptide entry in series [3] (data not shown) is recorded as “internalized”.
Take VKKKKIKREIKI [DPT-sh1, VKKKKIKREIKI]: the internalization of peptide result in series [3] (data not shown) is on record as “internalized”.
For “YIETLDGILEQWARSEDL [C9, YIETLDGILEQWARSEDL]”, the internalization of peptide result in series [3] (data not shown) was “not internalized”.
